# From patent publication US9238639B2, “Aromatic ring compound” (TAKEDA PHARMACEUTICAL COMPANY LIMITED, priority 2012, dated 2016)
# Target: T1, human GOAT (Homo sapiens, UniProt Q96T53)
# T1 construct: made in house; host or cells: Sf9 insect cells (BacToBac baculovirus, pFastBac1 vector); microsome fraction
# T1 sequence (Q96T53 1-435): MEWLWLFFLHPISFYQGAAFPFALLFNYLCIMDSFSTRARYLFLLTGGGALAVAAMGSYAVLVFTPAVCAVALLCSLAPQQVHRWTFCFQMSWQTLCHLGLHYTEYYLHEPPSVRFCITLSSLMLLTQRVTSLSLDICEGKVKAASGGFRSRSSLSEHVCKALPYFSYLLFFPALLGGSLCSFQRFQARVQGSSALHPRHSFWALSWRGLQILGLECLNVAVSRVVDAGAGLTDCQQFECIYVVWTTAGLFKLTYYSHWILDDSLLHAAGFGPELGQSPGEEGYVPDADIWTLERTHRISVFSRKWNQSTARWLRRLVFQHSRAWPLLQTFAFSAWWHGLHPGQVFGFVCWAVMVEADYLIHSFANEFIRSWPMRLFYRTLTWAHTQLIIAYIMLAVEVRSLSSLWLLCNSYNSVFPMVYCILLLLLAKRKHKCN
# Test: GOAT enzyme activity measurement by HTRF method (human GOAT-expressing microsome fraction)
# Format: biochemical
# Details: 10 μM compound; human GOAT-expressing Sf9 microsome fraction; octanoyl-CoA and Ghrelin-biotin substrates; 0% control without compound, 100% control without enzyme
# Method: Human GOAT (Accession NO: EU518495) cDNA was amplified by PCR including reaction of (1) 98° C., 1 min, (2) 35 repeats of 98° C., 10 sec·65° C., 15 sec·72° C., 80 sec, and (3) 72° C., 5 min, using human stomach cDNA library (Takara Bio) as a template and Pyrobest DNA Polymerase (Takara Bio). The amplified fragment was treated with restriction enzymes, inserted into Stu I/Not I sites of pFastBacl (Invitrogen) by using Ligation High (TOYOBO), and transfected into ECOS JM109 (Nippon Gene) to construct pFB/hGOAT.
# Production of Baculovirus and Preparation of Insect Cell Microsome Fraction
# For preparation of baculovirus from pFB/hGOAT, BacToBac baculovirus expression system (Invitrogen) was used. The virus titer was measured by Real-Time PCR using SYBR Green (Takara Bio). Sf9 cells were infected with the obtained baculovirus at Multiplicity of Infection (MOI)=0.2, and cultured for 70 hr. The Sf9 cells were recovered, suspended in a suspension buffer (TBS (0.3 M NaCl), 1 mM DTT, 1 mM EDTA, Complete (Roche) (1 tablet/50 mL)), and the cells were disrupted twice on ice at 20000 rpm, 30 sec using a polytron homogenizer. The cell disruption solution was centrifuged at 1000 rpm for 10 min at 4° C., the supernatant was further ultracentrifuged at 40000 rpm for 30 min at 4° C. and the precipitate was recovered. The obtained precipitate was suspended in the suspension buffer used above to give a human GOAT-expressing microsome fraction. The protein level was measured using BCA Protein assay Reagent (PIERCE).
# Enzyme Activity Measurement by HTRF Method
# A compound solution (2 μL) diluted with an assay buffer containing 50 mM Tris-HCl (pH 7.5), 0.5% TWEEN20, and Complete to 15% DMSO and 90 μg/mL human GOAT-expressing microsome fraction (2 μL) were incubated at room temperature for 20 min, after which a substrate mixed solution (2 μL) containing 30 μM octanoyl-CoA (CHEM-IMPLEX) and 3 μM Ghrelin-biotin ([…]epsilon aminocaproic acid-biotin (Greiner Coutom synthesis)) was added to 384 white small volume plate (Greiner). After reaction for 20 min, 2 μL of citrate buffer (pH3) (mixed solution of 0.1 M citric acid (39.8 mL) and 0.2 M Na2HPO4 (10.2 mL)), 2 μL of 25 nM anti-active ghrelin antibody (produced in mouse), 5 μL of Eu(K)-Anti Mouse IgG Pab (Cis Bio) 100-fold diluted with HTRF detection buffer (Cis Bio) and 5 μL of streptavidin-Xlent (Cis Bio) 66.6-fold diluted with HTRF detection buffer (Cis Bio) were added. After incubation at room temperature for 1 hr or longer, the fluorescence values at 620 nm and 665 nm were measured by Envision (PerkinElmer). The data was calculated [(665 nm signal/620 nm signal)×10^4], and the inhibitory activity against human GOAT was shown by the data where 0% control was without compound, and 100% control was without enzyme.
row,inhibition at 10 µM,SMILES
1,88.6%,"COC(=O)Cc1csc2c(F)c(OCc3ccc(C(F)(F)F)nc3C)cc(Cl)c12 [Example 39, Methyl(4-chloro-7-fluoro-6-((2-methyl-6-(trifluoromethyl)pyridin-3-yl)methoxy)-1-benzothiophen-3-yl)acetate]"
2,79%,"O=C(O)CC1CS(=O)(=O)c2cc(OCc3ccc(Cl)cc3Cl)ccc21 (stereo not shown) [Example 52, (6-((2,4-Dichlorobenzyl)oxy)-1,1-dioxido-2,3-dihydro-1-benzothiophen-3-yl)acetic acid]"
3,94.9%,"COC(=O)Cc1csc2cc(OCc3ccc(C(F)(F)F)nc3C)cc(F)c12 [Example 304, Methyl (4-fluoro-6-((2-methyl-6-(trifluoromethyl)pyridin-3-yl)methoxy)-1-benzothiophen-3-yl)acetate]"
4,92.8%,"CCOC(=O)Cc1csc2cc(OCc3ccc(C)nc3C)ccc12 [Example 3, Ethyl(6-((2,6-dimethylpyridin-3-yl)methoxy)-1-benzothiophen-3-yl)acetate]"
5,104%,"Cc1cc(OCc2cc(C(F)(F)F)nn2C)c(F)c2scc(CC(=O)O)c12 [Example 34, (7-Fluoro-4-methyl-6-((1-methyl-3-(trifluoromethyl)-1H-pyrazol-5-yl)methoxy)-1-benzothiophen-3-yl)acetic acid]"
6,95.6%,"Cc1cc(COc2cc(C)c3c(CC(=O)O)csc3c2)n(C)n1 [Example 8, (6-((1,3-Dimethyl-1H-pyrazol-5-yl)methoxy)-4-methyl-1-benzothiophen-3-yl)acetic acid]"
7,105%,"Cc1nc(C(F)(F)F)ccc1COc1cc(C)c2c(CC(=O)O)csc2c1C [Example 24, (4,7-Dimethyl-6-((2-methyl-6-(trifluoromethyl)pyridin-3-yl)methoxy)-1-benzothiophen-3-yl)acetic acid]"
8,101%,"Cc1nc(C(F)(F)F)ccc1COc1cc(Cl)c2c(CC(=O)O)csc2c1 [Example 16, (4-Chloro-6-((2-methyl-6-(trifluoromethyl)pyridin-3-yl)methoxy)-1-benzothiophen-3-yl)acetic acid]"
9,105%,"Cc1cc(COc2cc(Cl)c3c(CC(=O)O)csc3c2)n(C)n1 [Example 26, (4-Chloro-6-((1,3-dimethyl-1H-pyrazol-5-yl)methoxy)-1-benzothiophen-3-yl)acetic acid]"
10,99%,"Cc1ccc(COc2ccc3c(CC(=O)O)csc3c2)c(C)n1 [Example 4, (6-((2,6-Dimethylpyridin-3-yl)methoxy)-1-benzothiophen-3-yl)acetic acid]"
11,99.5%,"COC(=O)Cc1c(C)sc2cc(OCc3cc(C(F)(F)F)nn3C)cc(Cl)c12 [Example 306, Methyl (4-chloro-2-methyl-6-((1-methyl-3-(trifluoromethyl)-1H-pyrazol-5-yl)methoxy)-1-benzothiophen-3-yl)acetate]"
12,105%,"Cn1nc(C(F)(F)F)cc1COc1cc(Cl)c2c(CC(=O)O)csc2c1 [Example 22, (4-Chloro-6-((1-methyl-3-(trifluoromethyl)-1H-pyrazol-5-yl)methoxy)-1-benzothiophen-3-yl)acetic acid]"
13,83%,"O=C(O)Cc1csc2cc(S(=O)(=O)Cc3ccc(Cl)cc3Cl)ccc12 [Example 83, (6-((2,4-Dichlorobenzyl)sulfonyl)-1-benzothiophen-3-yl)acetic acid]"
14,105%,"Cn1nc(C(F)(F)F)cc1COc1cc(Cl)c2c(CC(=O)O)csc2c1Cl [Example 28, (4,7-Dichloro-6-((1-methyl-3-(trifluoromethyl)-1H-pyrazol-5-yl)methoxy)-1-benzothiophen-3-yl)acetic acid]"
15,99.2%,"O=C(O)Cc1csc2cc(OCc3ccc(Cl)cc3Cl)ccc12 [Example 2, (6-((2,4-Dichlorobenzyl)oxy)-1-benzothiophen-3-yl)acetic acid]"
16,68.7%,"COC(=O)Cc1coc2c(C)c(OCc3ccc(Cl)cc3Cl)cc(C)c12 [Example 45, Methyl(6-((2,4-dichlorobenzyl)oxy)-4,7-dimethyl-1-benzofuran-3-yl)acetate]"
17,69%,"CC(=O)NCC[C@@H]1COc2cc(OCc3ccc(Cl)cc3Cl)ccc21 [Example 197, N-(2-((3S)-6-((2,4-Dichlorobenzyl)oxy)-2,3-dihydro-1-benzofuran-3-yl)ethyl)acetamide]"
18,103%,"Cc1c(OCc2ccc(Cl)cc2Cl)cc(C)c2c(CC(=O)O)coc12 [Example 46, (6-((2,4-Dichlorobenzyl)oxy)-4,7-dimethyl-1-benzofuran-3-yl)acetic acid]"
19,99.9%,"COC(=O)Cc1csc2cc(OCc3cc(C(F)(F)F)nn3C)cc(F)c12 [Example 302, Methyl (4-fluoro-6-((1-methyl-3-(trifluoromethyl)-1H-pyrazol-5-yl)methoxy)-1-benzothiophen-3-yl)acetate]"
20,103%,"Cc1nc(C(F)(F)F)ccc1COc1cc(Cl)c2c(CC(=O)O)c(C)sc2c1 [Example 309, (4-Chloro-2-methyl-6-((2-methyl-6-(trifluoromethyl)pyridin-3-yl)methoxy)-1-benzothiophen-3-yl)acetic acid]"
21,97.3%,"Cc1nc(C(F)(F)F)ncc1COc1ccc2c(CC(=O)O)csc2c1 [Example 137, (6-((4-Methyl-2-(trifluoromethyl)pyrimidin-5-yl)methoxy)-1-benzothiophen-3-yl)acetic acid]"
22,106%,"Cc1nc(C(F)(F)F)ccc1COc1cc(Cl)c2c(CC(=O)O)csc2c1F [Example 40, (4-Chloro-7-fluoro-6-((2-methyl-6-(trifluoromethyl)pyridin-3-yl)methoxy)-1-benzothiophen-3-yl)acetic acid]"
23,85%,"COCC1(C(=O)O)COc2cc(OCc3ccc(Cl)cc3Cl)ccc21 (stereo not shown) [Example 281, 6-((2,4-Dichlorobenzyl)oxy)-3-(methoxymethyl)-2,3-dihydro-1-benzofuran-3-carboxylic acid]"
24,106%,"Cc1nc(C(F)(F)F)ccc1COc1cc(Cl)c2c(CC(=O)O)csc2c1Cl [Example 30, (4,7-Dichloro-6-((2-methyl-6-(trifluoromethyl)pyridin-3-yl)methoxy)-1-benzothiophen-3-yl)acetic acid]"
25,94.8%,"Cc1ccc(COc2cc(C)c3c(c2C)OCC3CC(=O)O)c(C)n1 (stereo not shown) [Example 289, (6-((2,6-Dimethylpyridin-3-yl)methoxy)-4,7-dimethyl-2,3-dihydro-1-benzofuran-3-yl)acetic acid]"
26,94.7%,"COC(=O)Cc1csc2cc(OCc3cc(C)nn3C)cc(C)c12 [Example 7, Methyl(6-((1,3-dimethyl-1H-pyrazol-5-yl)methoxy)-4-methyl-1-benzothiophen-3-yl)acetate]"
27,51.5%,"COC(=O)Cc1c(C)sc2cc(OCc3ccc(C(F)(F)F)nc3C)cc(Cl)c12 [Example 308, Methyl (4-chloro-2-methyl-6-((2-methyl-6-(trifluoromethyl)pyridin-3-yl)methoxy)-1-benzothiophen-3-yl)acetate]"
28,88.9%,"CCOC(=O)Cc1csc2cc(OCc3cc(C(F)(F)F)nn3C)ccc12 [Example 17, Ethyl(6-((1-methyl-3-(trifluoromethyl)-1H-pyrazol-5-yl)methoxy)-1-benzothiophen-3-yl)acetate]"
